Experiment [1] deals with Mycobacterium tuberculosis strain EH 4.0 (361.269). The experiment can be described thus: Test 4: resazurin growth inhibition assay, M. tuberculosis strain EH 4.0. In kind it is cell-based. The following applies: read-out: pIC50 (converted). From the text: Test 4 (See Also Test 1 Above; in this Test a Different Strain of Mycobacterium tuberculosis Strain is Employed)
Appropriate solutions of experimental and reference compounds were made in 96 well plates with 7H9 medium. Samples of Mycobacterium tuberculosis strain EH 4.0 (361.269) were taken from cultures in stationary growth phase. These were first diluted to obtain an optical density of 0.3 at 600 nm wavelength and then diluted 1/100, resulting in an inoculum of approximately 5×10 exp5 colony forming units per well. Plates were incubated at 37° C. in plastic bags to prevent evaporation. After 7 days, resazurin was added to all wells. Two days later, fluorescence was measured on a Gemini EM Microplate Reader with 543 nm excitation and 590 nm emission wavelengths and MIC50 and/or pIC50 values (or the like, e.g. IC50, IC90, pIC90, etc) were (or may be) calculated. pIC50 values may be recorded below in μg/mL.
(Alamar Blue is a resazurin reagent that responds to reducing activity.)

For a further experiment, the system named is M. tuberculosis H37Rv. The following applies: strain M. tuberculosis H37Rv, inside macrophages; cited from earlier work.
A further experiment deals with M. tuberculosis. The note with it: cited from earlier work.

In brackets after ≈: the same amount, converted by molar mass.

As to `CCc1nc2ncc(Cl)cn2c1C(=O)NCc1ccc(N2CC3CC(F)CC3C2)cc1` (stereo not drawn) [Cpd 4], in experiment [1], the IC50 was 112 nM.

Take `CCc1nc2sc(C)cn2c1C(=O)NCc1ccc(N2CC3CC(F)CC3C2)cc1` (stereo not drawn) [Cpd 2]: the IC50 in experiment [1] was 50.1 nM. Still for that read-out and setting: then `CCc1nc2ncc(Cl)cn2c1C(=O)NCc1ccc(N2C[C@@H]3CC(F)(F)C[C@@H]3C2)cc1` [Cpd 9], with 15.8 nM; and `CCc1nc2ccc(Cl)cn2c1C(=O)NCc1ccc(N2CC3CC(F)CC3C2)cc1` (stereo not drawn) [Cpd 1], with 39.8 nM. As to `CCc1nc2ccc(Cl)cn2c1C(=O)NCc1ccc(N2CCC(c3ccc(OC(F)(F)F)cc3)CC2)cc1` [Compound Q203], the MIC50 in the experiment with M. tuberculosis H37Rv is reported as 0.28 nM (≈ 0.156 ng/mL). For the same compound, the “activity against both replicating and non-replicating bacteria” value with M. tuberculosis is listed as “highly active”. Turning to `CCc1nc2sc(C)cn2c1C(=O)NCc1ccc(N2CC3C(C2)C3C(F)(F)F)cc1` (stereo not drawn) [Cpd 7], the IC50 in experiment [1] is 31.6 nM. On the same count and under the same terms, then `CCc1nc2n(c1C(=O)NCc1ccc(N3CC4CC(F)CC4C3)cc1)CCCC2` (stereo not drawn) [Cpd 3], with 100 nM; and `Cc1nn2ccccc2c1C(=O)NCc1ccc(N2C[C@H]3C[C@H](F)C[C@H]3C2)cc1` [Cpd 8], with 1120 nM.

(Values after patent US11179396B2, “Heterocyclic compounds as antibacterials” (Janssen Sciences Ireland Unlimited Company, priority 2016, dated 2021).)
